Measurements: patent publication US9540647B2, “Methods and compositions for the treatment of cancer” (University of South Alabama, priority 2010, dated 2017)
“Also recorded” adds a separate entry of the source.

Key:
RAW264.7 cells [1] = experiment: Osteoclast differentiation (TRAP assay); format: cell-based, murine
Method: Cell lines—Human metastatic breast cancer cells, MDA-MB-231, were cultured in Dulbecco's Modified Eagle's Medium (DMEM/F12; Invitrogen, Carlsbad, Calif.), supplemented with 2 mM L-glutamine, 1 mM sodium pyruvate, 0.02 mM non-essential amino acids, 5% fetal bovine serum, FBS (Atlanta Biologicals, Norcross, Ga.), without antibiotics or antimycotics (cDME/F12). SUM1315 and SUM159 cells (DiMeo, T. A., et al. (2009) Cancer Res 69, 5364-5373) (Asterand, Detroit, Mich.) were cultured in DMEM/F12 supplemented with […], 5% FBS (Atlanta Biologicals) and either 10 ng/ml EGF or 1 ng/ml hydrocortisone, without antibiotics or antimycotics. The SUM1315 cells are derived from a metastasis in a patient with infiltrating ductal carcinoma; SUM159 cells were derived from a primary breast tumor with metaplastic carcinoma. RAW264.7 (ATCC, TIB 71) cells, a murine pre-osteoclastic line capable of differentiation and […] in culture (in presence of RANKL and MCSF), were grown in DMEM with L-glutamine (ATCC, 30-2002) supplemented with 10% FBS. A 2× differentiation medium (DM) was formulated for the RAW 264.7 cells comprising RAW264.7 growth medium supplemented with 20% FBS, RANKL (100 ng/ml) and M-CSF (40 ng/ml) (Matsubara, T., et al. J Bone Miner Res 25, 1068-1076). Conditioned media was harvested from breast cancer cells and mixed in a 1:1 ratio with double strength differentiation medium to assess the effect on osteoclast differentiation. 1×DM was used as control or wherever SHH (R & D Systems, Minneapolis, Minn.) or OPN (R & D Systems) was used alone. The medium on the RAW264.7 cells was replenished every 48 hours. In order to assess the effect of secreted Hh ligands, the neutralizing 5E1 antibody was used (Developmental Studies Hybridoma Bank, at the University of Iowa, Iowa). […] Medium was supplemented with 5E1 (2.5 μg/ml) and was changed on alternate days until the end of the experiment. The effect of OPN on osteoclast activity was assessed by transfecting an OPN shRNA-expressing construct on day 6 post-induction of differentiation. Fresh DM was added the following day and cells were allowed to grow for another 12 hours before termination of experiment. GLI1 expression was silenced in the SUM1315 cells using shRNA targeting GLI1 into pSuperior. gfp+neo (Oligoengine, WA, USA). Silencing of OPN expression was done using OPN-targeting shRNA cloned into pSuper (Oligoengine)
Osteoclast differentiation and activity assays—Tartarate-resistant acid phosphatase (TRAP) assay was conducted for RAW 264.7 following the manufacturer's protocol (Sigma, St. Louis, Mo.). This assay was indicative of the extent of differentiation. […] The percentage of area resorbed was calculated using the NIS-Elements BR. […]

RAW264.7 cells [2] = experiment: Osteoclast resorption activity (OAAS plates); format: cell-based, murine
Method: Osteoclast differentiation and activity assays—Tartarate-resistant acid phosphatase (TRAP) assay was conducted for RAW 264.7 following the manufacturer's protocol (Sigma, St. Louis, Mo.). This assay was indicative of the extent of differentiation. OAAS plates (Osteogenic Core Technologies, Choongnam, Republic of Korea) were utilized to measure osteoclastic activity. RAW 264.7 cells (25×103) were inoculated in 48-well plates. Cells were treated with serum-free conditioned media from breast cancer cells or 100 nM SHH or 100 ng/ml OPN on the following day. Media was changed every two days and the experiments were terminated either on day 6 (day 7 for knockdown experiments, with transfections being done on the sixth day). At the completion, cells were detached with 5% sodium hypochlorite and the wells were observed under a Nikon Eclipse TS 100 microscope at 10× magnification. […] The percentage of area resorbed was calculated using the NIS-Elements BR. 3.1 software.

c-jun and c-fos mRNA = c-jun and c-fos mRNA expression in A2780-CP70 cells (semi-quantitative PCR); format: cell-based, human; conditions: 70 μM cyclopamine
OPN mRNA = experiment: OPN transcript levels by real-time RT-PCR in metastatic melanoma cell lines; format: cell-based, human; conditions: for levels of OPN mRNA: cyclopamine 24 h, qRT-PCR
Method: This medium was replaced with fresh cyclopamine-containing medium after 12 h. […] RNA was assessed by real-time RT-PCR for OPN transcript levels.
Stable vector only and non-targeting (scrambled control) transfectants were also generated. Stable transfectants were selected on medium supplemented with 500 μg/ml Geneticin (Invitrogen). The four GLI1-knocked down clones chosen were based on the extent of GLI1 knockdown and were termed KO1, KO2, KO3, and KO4. The expression of OPN was restored in the KO1 cells by transfecting with pcDNA3.1-OPN. A corresponding vector-only transfectant was also generated. Transfectants were selected on medium containing Geneticin (500 μg/ml) and hygromycin (750 μg/ml). Serum-free conditioned medium harvested from approximately 3.0×10^6 cells after 24 hr was assayed for OPN by immunoblotting.
Quantitative RT-PCR (qRT-PCR)—cDNA was generated using High Capacity Reverse Transcriptase Kit (Applied Biosystems, Foster City, Calif.). Real time PCR was performed using a Bio-Rad iQ5 Real-Time Detection system (Bio-Rad). All reactions were done as three independent replicates. All assays were done using the TaqMan Gene Expression Assays from Applied Biosystems. OPN (SPP1: Hs 00959010_m1) transcript levels were normalized to glyceraldehyde-3-phosphate dehydrogenase (Hs 99999905_m1) levels (δCT), which was used to calculate changes in OPN expression (2^−δδCT). […] GLI1 and SHH (Hs 00179843_m1) expressions were also similarly assessed with glyceraldehyde-3-phosphate dehydrogenase as an endogenous control. To analyze the knockdown effectiveness, “scrambled transfectants” of MDA-MB-435 was set as calibrator.

OPN promoter = OPN promoter reporter activity in hFOB cells; format: cell-based, human
Method: Empty pGL3 vector was used as control. […] Readings were normalized to total protein content. Each parameter was studied in triplicate and the experiment repeated at least 3 times. The data are represented as percent luciferase activity, which was derived as a percent of the relative light units in treated groups compared with the untreated groups.
Empty pGL3 vector was used as control. Different concentrations of SHH ligand were added to the well the next day. Cells were lysed in Reporter Lysis buffer (Promega) 24 hrs post addition of SHH and both β-galactosidase assay and luciferase assays were done following manufacturer's protocol. Readings were normalized to β-galactosidase. Each parameter was studied in triplicate and the experiment repeated at least 3 times.

## CC1=C2C[C@H]3[C@@H](CC=C4C[C@@H](O)CC[C@@]43C)[C@@H]2CC[C@]12O[C@@H]1C[C@H](C)CN[C@H]1[C@H]2C [cyclopamine]
RAW264.7 cells [1]; conditioned medium from MDA-MB-435 cells treated with cyclopamine
  ability of tumor cells to induce osteoclast differentiation: significant reduction
RAW264.7 cells [1]; cyclopamine (20 μM), DM and breast cancer cell-conditioned medium
  ability of osteoclasts to differentiate: significantly (*p<0.0001) compromises their ability to differentiate
RAW264.7 cells [2]; cyclopamine (20 μM), stimulated with breast cancer conditioned medium
  ability of osteoclasts to resorb matrix: significantly (*p<0.0001) compromises their ability to resorb matrix
c-jun and c-fos mRNA
  c-fos mRNA levels, peak over 0 hr: 27 fold
c-jun and c-fos mRNA; 6 hr
  c-jun mRNA levels, increase: 3 fold
c-jun and c-fos mRNA; 24 hr (peak)
  c-jun mRNA levels, increase over 0 hr: 13 fold
OPN mRNA; MCC012A cells
  levels of OPN mRNA: decreases the levels of OPN mRNA
OPN mRNA; MCC012F cells
  levels of OPN mRNA: decreases the levels of OPN mRNA
OPN mRNA; MDA-MB-435 cells
  levels of OPN mRNA: decreases the levels of OPN mRNA in a dose-dependent manner

## SHH: recombinant Sonic Hedgehog ligand (R & D Systems)
RAW264.7 cells [1]; DM supplemented with OPN (100 ng/ml) or SHH (100 nM) vs DM
  numbers of multinucleate TRAP-positive cells: potentiates differentiation; also recorded: stimulate osteoclast differentiation; also recorded: significantly (* indicates p<0.005) increases
RAW264.7 cells [2]; DM with OPN (100 ng/ml) or SHH (100 nM)
  resorption activity of differentiated osteoclasts: significantly (* indicates p<0.001) increases the resorption activity
OPN promoter
  OPN promoter activity: activates the OPN promoter; also recorded: upregulation in OPN promoter activity
OPN mRNA; MDA-MB-435 cells, cyclopamine 20 μM, after 12 hr medium with recombinant SHH (100 nM)
  OPN transcript levels, rescue of cyclopamine inhibition: able to rescue the inhibitory effects of cyclopamine
